Data from PubChem BioAssay (NCI).
Values joined by “and” are separate entries in the source; they are usually repeats but may differ in a detail not shown here. Equal entries are not always repeated.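 48-hour exposure; five concentrations; linearly interpolated endpoints. GI50 is the concentration that inhibits growth by half. Definition used: TGI = concentration required for complete inhibition of growth.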

Key:
Experiment in all cases: NCI-60 cell line screen, 48 h
[1] = tested on: UACC-257 melanoma
[2] = tested on: SF-295 CNS
[3] = tested on: HOP-92 NSCLC
[4] = tested on: TK-10 renal
[5] = tested on: 786-0 renal
[6] = tested on: PC-3 prostate
[7] = tested on: K-562 leukemia
[8] = tested on: NCI-H23 lung
[9] = tested on: KM12 colon

SMILES	TGI [1]	GI50 [2]	TGI [2]	GI50 [3]	TGI [3]	GI50 [4]	TGI [4]	TGI [5]	GI50 [6]	TGI [6]	TGI [7]	TGI [8]	TGI [9]	GI50 [1]	GI50 [8]	GI50 [9]
C=C(C(=O)O[C@H]1C(=O)C2=C(C)CCC3C(=C)C(=O)O[C@@H]3C2[C@]1(C)O)C1CC[C@]2(C)CCCC(=C)[C@H]2C1 (stereo not given in full)	14 µM and 12 µM	0.0252 µM	9.37 µM and 29.5 µM	7.27 µM	14.2 µM and 11.3 µM	6 µM	12.3 µM and 6.78 µM	4.29 µM	4.08 µM	10.4 µM and 16.8 µM	> 20.1 µM	16.1 µM and 16.8 µM	20.5 µM	–	–	–
O=c1ccc2ccc(O)cc2o1	> 100 µM	–	> 100 µM	–	> 100 µM	–	> 100 µM	> 100 µM	–	> 100 µM	–	> 100 µM	> 100 µM	–	–	–
C[C@H]1COC2=C1C(=O)C(=O)c1c2ccc2c1CCCC2(C)C	6.46 µM	–	3.73 µM	–	> 100 µM	–	65.9 µM	35.2 µM	–	> 64.5 µM	> 100 µM	3.57 µM	37 µM	–	–	–
CC(=O)OC1COC(Nc2nc(N)n(C)c(=O)c2N=O)C(OC(C)=O)C1OC(C)=O (stereo not given)	> 10 µM	–	> 10 µM	–	> 10 µM	–	> 10 µM	> 10 µM	–	> 10 µM	–	> 10 µM	> 10 µM	–	–	–
Cc1sc2nc3n(c(=O)c2c1C)N=CN(c1ccc(F)cc1)C3	> 100 µM	–	> 100 µM	–	83.9 µM	–	> 100 µM	38.3 µM	–	> 100 µM	> 100 µM	> 100 µM	> 100 µM	–	–	–
Cc1ccc(-n2cc([Si](C)(C)C)nn2)s1	> 100 µM	–	> 100 µM	–	> 100 µM	–	> 100 µM	> 100 µM	–	> 100 µM	> 100 µM	> 100 µM	–	–	–	–
NCCCNCCCCN1CC1	4.71 µM	–	> 55.9 µM	–	4.91 µM	–	> 23.2 µM	–	–	> 34.9 µM	> 20.7 µM	> 28 µM	> 30.7 µM	–	–	–
CCC[C@@H]1C(=O)N=C(N)N1C(=O)OCc1ccccc1	> 100 µM	–	> 100 µM	–	–	–	> 100 µM	> 100 µM	–	> 100 µM	> 100 µM	> 100 µM	> 100 µM	–	–	–
O=c1ccc2nc(-c3ccccn3)nn(-c3ccccc3)c-2c1	3.93 µM	13.9 µM	27.4 µM	1.15 µM	2.42 µM	1.66 µM	3.12 µM	–	1.93 µM	4.18 µM	–	4.84 µM	28.9 µM	1.92 µM	2.19 µM	14.5 µM
COc1ccc(C2=NN=C3C(c4ccccc4)=Nc4ccccc4N3C2)cc1	> 100 µM	–	–	–	> 100 µM	–	> 100 µM	> 100 µM	–	> 100 µM	> 100 µM	> 100 µM	> 100 µM	–	–	–
O=C(N/N=C/c1cc(Br)cc(Br)c1[O-])c1ccccc1O.O=C(N/N=C/c1cc(Br)cc(Br)c1[O-])c1ccccc1O.[Ni+2]	2.28 µM	–	1.11 µM	–	2.02 µM	–	1.87 µM	–	–	–	4.88 µM	2.65 µM	2.13 µM	–	–	–
